The source of these data is patent publication US20260165953A1, “THE HIPPO PATHWAY AS A PHARMACOLOGIC TARGET FOR TREATING REFRACTIVE DISORDERS” (Centre for Eye and Vision Research Limited, priority 2022, published 2026).

Data set [1] has as its system form-deprivation myopia (FDM) in chicks. The data set can be described thus: Unilateral form-deprivation myopia (FDM) in chicks, four intravitreal injections every alternate day, 7-day diffuser lens treatment. Format: in vivo, White Leghorn chicks (Gallus gallus). The note with it: for axial length, mean interocular difference ± SD / refractive error (myopic progression), mean interocular difference ± SD / increase in choroidal thickness compared to the vehicle group / choroidal thickness, mean interocular difference ± SD: after 7-day treatment; for axial length, mean interocular difference ± SD: vehicle 0.75±0.19 mm; for refractive error (myopic progression), mean interocular difference ± SD: vehicle −10.0±2.56 D; for choroidal thickness, mean interocular difference ± SD: vehicle 43.02±8.87 μm. How it is done:
XMU-MP-1, known for its reversible and selective inhibition of MST1/2 (upstream to YAP/TAZ), leading to a significant increase in the activity of the Hippo pathway effector YAP, undergoes testing in a dose-dependent manner for its impact on form-deprivation myopia (FDM) in chicks.
White Leghorn chicks (Gallus gallus) from specific pathogen-free eggs (SPF, Jinan, China) are raised in standard cages with adequate food and water, maintaining a temperature of 25° C. and a 12 h:12 h light/dark cycle. The experimental period spans from postnatal 7 days (PN 7) to 14 days (PN 14). A unilateral FDM model is established using a published protocol, involving four intravitreal injections performed every alternate day. Following the first injection, diffuser lenses are attached to the right eye, with lenses covering only the XMU-MP-1 injected eye (unilateral FDM). XMU-MP- 1, dissolved in 10% DMSO with 90% Corn oil, is injected monocularly using a 0.3 mm (30 G)×8 mm needle into the vitreous through the skin, sclera, choroid, and retina close to the margin of the upper orbit. Contralateral eyes receive no lens treatment. Four concentrations of XMU-MP-1 (0.02, 0.2, 2, and 20 mmol/L) are selected for evaluation.
Animals are randomly assigned to five groups, encompassing the FDM with vehicle treatment group (vehicle group, 10% DMSO+90% Corn oil, n=14), FDM with 0.02 mmol/L XMU-MP-1 treatment group (XMU-MP-1, 0.02 mmol/L group, n=5), FDM with 0.2 mmol/L XMU-MP-1 treatment group (XMU-MP-1, 0.2 mmol/L group, n=5), FDM with 2 mmol/L XMU-MP-1 treatment group (XMU-MP-1, 2 mmol/L group, n=13), and FDM with 20 mmol/L XMU-MP-1 treatment group (XMU-MP-1, 20 mmol/L group, n=14).
Refractive errors are assessed using a streak retinoscope, and ocular parameters are measured with a high-frequency A-scan ultrasound system equipped with a 30 MHz transducer (Panametrics, Inc., Waltham, MA) before and after treatment. The spherical equivalent (S.E.) is derived from the refractive status (S.E.=spherical power+½ cylindrical power), and axial length is defined from the front of the cornea to the back of the vitreous chamber.
For statistical analysis, after the 7-day lens treatment period, interocular differences (the difference between the diffuser-treated eyes and the contralateral fellow eyes) are calculated for six ocular parameters (refractive error, anterior chamber depth, lens thickness, vitreous chamber depth (FIG. 4B), axial length, and choroidal thickness). Mean interocular differences±SD are presented, and the significance of the dose-effect is analyzed using ANOVA. Post hoc testing (Dunnett's method) is employed where appropriate, with significance levels denoted as follows: ns, not significant; *, P<0.05; **, P<0.01; ****, P<0.0001.

The nature of data set [2]: Signs of toxicity in animal models. Format: in vivo.
The mark [3] stands for this setting: 2 mmol/L XMU-MP-1 intravitreal, n=13, P<0.001.
The mark [4] stands for this setting: 20 mmol/L XMU-MP-1 intravitreal, n=14, P<0.0001.

Regarding `CN1C(=O)c2sccc2N(C)c2nc(Nc3ccc(S(N)(=O)=O)cc3)ncc21` [XMU-MP-1], the “axial length, mean interocular difference ± SD” value in data set [1] (0.02 mmol/L XMU-MP-1 intravitreal, n=5) amounted to 0.73±0.13 mm; in data set [1] (0.2 mmol/L XMU-MP-1 intravitreal, n=5, P<0.001) it was 0.41±0.24 mm; in data set [1] (setting [3]) it was 0.36±0.20 mm; in data set [1] (setting [4]), 0.27±0.22 mm. The “refractive error (myopic progression), mean interocular difference ± SD” value was −6.05±2.97 D in data set [1] (0.2 mmol/L XMU-MP-1 intravitreal, n=5, P<0.01); −4.69±2.75 D in data set [1] (2 mmol/L XMU-MP-1 intravitreal, n=13, P<0.0001); −3.51±2.89 D in data set [1] (setting [4]). In addition, the “inhibition of myopia, based on refractive error and axial length data” value is reported as “about 40%” in data set [1] (0.2 mmol/L group) and “about 53%” in data set [1] (2 mmol/L group). Also, the “increase in choroidal thickness compared to the vehicle group” value in data set [1] (2 mmol/L XMU-MP-1 intravitreal) is reported as “about 50%”; in data set [1] (20 mmol/L XMU-MP-1 intravitreal), approximately 70%. For the same molecule, the “choroidal thickness, mean interocular difference ± SD” value in data set [1] (setting [3]) is reported as 22.07±15.13 μm; in data set [1] (setting [4]), 12.83±17.96 μm. Moreover, the “suppression of myopia development” value in data set [1] (highest dose tested (200 nmol)) is listed as “about 65%”. In data set [1] (intravitreal injection), the “inhibition of lens-induced myopia” value is reported as “robustly inhibits lens-induced myopia”. Also, the “suppression of myopia progression, dose dependence” value in data set [1] (intravitreal injection, 0.02-20 mmol/L, ANOVA significant dose-response effect (p<0.0001)) is on record as “can suppress myopia progression through intravitreal injection in a dose-dependent manner”. Besides, the signs of toxicity entry in data set [2] was “no discernible signs of toxicity”.
